The target in the assay is T1, hSCN3A sodium channels (Homo sapiens, UniProt Q9NY46).
T1 construct: expressed in transfected cells
The assay can be described thus: hSCN3A electrophysiology, Ionworks Quattro automated platform (Table C). The class given is cell-based. As to conditions: for inhibition at 3 µM: 3 μM compound, read-out: SCN3A % INHIB HTS IWQ 3 μM; for inhibition at 10 µM: 10 μM compound, read-out: SCN3A % INHIB HTS IWQ 10 μM. The method, then: Human Embryonic Kidney (HEK) cells were transfected with an hSCN3A construct using lipofectamine reagent (Invitrogen), using standard techniques. […] Clones were screened for expression using the whole-cell voltage-clamp technique.
HEK cells stably transfected with hSCN3A were maintained in DMEM medium supplemented with 10% heat-inactivated fetal bovine serum and 400 μg/ml G418 sulfate in an incubator at 37° C. with a humidified atmosphere of 10% CO2. […] For electrophysiological studies, cells were removed from the culture flask by brief trypsinization and replated at low density onto glass cover slips. Cells were typically used for electrophysiological experiments within 24 to 72 h after plating.
Electrophysiological assays were also conducted using the Ionworks Quattro automated electrophysiological platform (Molecular Devices Corp) (Table C). Intracellular and extracellular solutions were as described above with the following changes, 100 μg/ml amphotericin was added to the intracellular solution to perforate the membrane and allow electrical access to the cells. hSCN3A cells were grown and harvested as for PatchXpress and cells were resuspended in extracellular solution at a concentration of 3-4×10^6 cells/ml. The onboard liquid handling facility of the Ionworks Quattro was used for dispensing cells and application of test compounds. A voltage protocol was then applied that comprised of a voltage step to fully inactivate the sodium channels, followed by a brief hyperpolarized recovery period to allow partial recovery from inactivation for unblocked sodium channels, followed by a test depolarized voltage step to assess magnitude of inhibition by test compound. Compound effect was determined based on current amplitude difference between the pre-compound addition and post-compound addition scans.
On the technique in general: Patch clamp records ionic current or voltage across a cell membrane.

SMILES strings stand for the structures.

T1 sequence (Q9NY46 whole entry): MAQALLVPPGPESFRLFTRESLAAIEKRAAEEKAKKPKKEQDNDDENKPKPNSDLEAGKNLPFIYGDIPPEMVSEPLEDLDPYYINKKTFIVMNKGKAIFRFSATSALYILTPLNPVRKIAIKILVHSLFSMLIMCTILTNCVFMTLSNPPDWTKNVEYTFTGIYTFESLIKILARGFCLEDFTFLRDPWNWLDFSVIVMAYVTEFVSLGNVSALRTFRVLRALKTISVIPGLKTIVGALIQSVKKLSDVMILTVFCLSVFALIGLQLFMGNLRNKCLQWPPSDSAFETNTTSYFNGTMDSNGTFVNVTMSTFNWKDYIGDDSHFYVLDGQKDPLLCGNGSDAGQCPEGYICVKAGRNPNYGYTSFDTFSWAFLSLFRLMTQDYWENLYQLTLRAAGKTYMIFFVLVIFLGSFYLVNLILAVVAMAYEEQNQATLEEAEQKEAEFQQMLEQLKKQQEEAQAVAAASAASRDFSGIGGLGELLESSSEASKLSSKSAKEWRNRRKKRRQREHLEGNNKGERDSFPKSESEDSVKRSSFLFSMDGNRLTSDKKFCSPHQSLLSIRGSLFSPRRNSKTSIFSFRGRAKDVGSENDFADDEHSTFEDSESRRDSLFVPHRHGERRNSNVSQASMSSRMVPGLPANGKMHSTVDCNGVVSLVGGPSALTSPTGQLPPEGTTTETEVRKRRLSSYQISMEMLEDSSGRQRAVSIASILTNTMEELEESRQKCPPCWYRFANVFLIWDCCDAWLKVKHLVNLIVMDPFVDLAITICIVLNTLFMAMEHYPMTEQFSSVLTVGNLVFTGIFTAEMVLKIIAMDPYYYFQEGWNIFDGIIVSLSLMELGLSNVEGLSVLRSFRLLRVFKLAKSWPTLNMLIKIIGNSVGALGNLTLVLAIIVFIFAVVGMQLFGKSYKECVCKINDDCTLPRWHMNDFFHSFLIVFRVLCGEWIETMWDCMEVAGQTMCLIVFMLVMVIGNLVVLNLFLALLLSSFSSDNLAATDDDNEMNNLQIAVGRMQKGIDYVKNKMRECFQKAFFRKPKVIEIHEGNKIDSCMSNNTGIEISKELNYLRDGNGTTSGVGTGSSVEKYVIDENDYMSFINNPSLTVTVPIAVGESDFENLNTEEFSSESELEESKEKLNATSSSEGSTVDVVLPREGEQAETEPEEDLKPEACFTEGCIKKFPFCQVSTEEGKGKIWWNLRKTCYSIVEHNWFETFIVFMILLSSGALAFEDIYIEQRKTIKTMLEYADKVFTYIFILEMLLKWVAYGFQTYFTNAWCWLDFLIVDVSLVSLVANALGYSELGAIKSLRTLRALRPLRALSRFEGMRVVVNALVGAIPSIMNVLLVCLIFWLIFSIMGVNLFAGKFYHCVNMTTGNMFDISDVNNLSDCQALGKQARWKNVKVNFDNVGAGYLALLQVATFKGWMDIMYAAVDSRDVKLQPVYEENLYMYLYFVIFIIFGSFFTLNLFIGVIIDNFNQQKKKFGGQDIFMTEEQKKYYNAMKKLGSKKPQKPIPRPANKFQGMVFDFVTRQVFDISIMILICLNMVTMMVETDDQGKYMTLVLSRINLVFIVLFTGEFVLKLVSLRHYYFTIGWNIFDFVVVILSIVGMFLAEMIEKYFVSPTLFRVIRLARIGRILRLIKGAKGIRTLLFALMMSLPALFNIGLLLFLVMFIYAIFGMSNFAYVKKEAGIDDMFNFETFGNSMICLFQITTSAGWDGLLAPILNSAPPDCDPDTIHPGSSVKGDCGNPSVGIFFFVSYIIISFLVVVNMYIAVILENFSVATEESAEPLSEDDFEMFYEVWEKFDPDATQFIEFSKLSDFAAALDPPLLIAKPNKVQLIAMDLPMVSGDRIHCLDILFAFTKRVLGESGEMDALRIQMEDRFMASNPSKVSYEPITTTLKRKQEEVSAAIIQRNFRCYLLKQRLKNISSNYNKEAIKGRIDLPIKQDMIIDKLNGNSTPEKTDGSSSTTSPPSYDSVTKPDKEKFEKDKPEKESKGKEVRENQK

Regarding `Cc1cccc(CC2COCCN(C(=O)c3ccc(S(=O)(=O)Nc4nccs4)cc3)C2)n1` (stereo not shown) [Example 225, 4-({6-[(6-Methylpyridin-2-yl)methyl]-1,4-oxazepan-4-yl}carbonyl)-N-1,3-thiazol-2-yl-benzenesulfonamide], the inhibition at 3 µM was 6.08% and the inhibition at 10 µM is -8.14%.
The corresponding values for `CC(c1ccccc1)N(CCO)C(=O)c1ccc(S(=O)(=O)Nc2nccs2)cc1` (stereo not shown) [Example 229, N-(2-hydroxyethyl)-N-(1-phenylethyl)-4-[(1,3-thiazol-2-yl-amino)sulfonyl]benzamide] are 12.5% and 3.91%.
Regarding `O=C(NCc1c(F)cccc1C(F)(F)F)c1ccc(S(=O)(=O)Nc2nccs2)cc1` [Example 84, N-[2-fluoro-6-(trifluoromethyl)benzyl]-4-[(1,3-thiazol-2-ylamino)sulfonyl]benzamide], the inhibition at 3 µM stood at 17.7% and the inhibition at 10 µM turned out to be 22.2%.
The corresponding values for `O=C(c1ccc(S(=O)(=O)Nc2nccs2)cc1)N1CCCC(OCc2ccccc2)C1` (stereo not shown) [Example 211, 4-{[3-(benzyloxy)piperidin-1-yl]carbonyl}-N-1,3-thiazol-2-yl-benzenesulfonamide] are 2.5% and 10.1%.
As for `CC(Cc1ccc(F)c(F)c1)NC(=O)c1ccc(S(=O)(=O)Nc2nccs2)cc1` (stereo not shown) [Example 151, N-[2-(3,4-difluorophenyl)-1-methylethyl]-4-[(1,3-thiazol-2-ylamino)sulfonyl]benzamide], the inhibition at 3 µM amounted to 17.4% and the inhibition at 10 µM came to 12.7%.
Regarding `O=C(NC1(Cc2cccc(Cl)c2)CC1)c1ccc(S(=O)(=O)Nc2nccs2)cc1` [Example 137, N-[1-(3-chlorobenzyl)cyclopropyl]-4-[(1,3-thiazol-2-ylamino)sulfonyl]benzamide], the inhibition at 3 µM came to 21.8% and the inhibition at 10 µM was 36.2%.
For the molecule `CC[C@@H](NC(=O)c1ccc(S(=O)(=O)Nc2nccs2)cc1)c1ccccc1` [Example 150, N-[(1R)-1-phenylpropyl]-4-[(1,3-thiazol-2-ylamino)sulfonyl]benzamide], the inhibition at 3 µM is -7.12% and the inhibition at 10 µM amounted to 22.6%.
The corresponding values for `COc1ccc(CCNC(=O)c2ccc(S(=O)(=O)Nc3nccs3)cc2)cc1` [Example 169, N-[2-(4-methoxyphenyl)ethyl]-4-[(1,3-thiazol-2-ylamino)sulfonyl]benzamide] are 35.3% and 27.3%.
As to `O=C(N[C@@H]1CCC[C@@H]1c1ccccc1)c1ccc(S(=O)(=O)Nc2nccs2)cc1` [Example 138, N-[(1R,2R)-2-phenylcyclopentyl]-4-[(1,3-thiazol-2-ylamino)sulfonyl]benzamide], the inhibition at 3 µM came to 16.2% and the inhibition at 10 µM was found to be 11.2%.
The corresponding values for `CC(Cc1ccc(F)cc1)NC(=O)c1ccc(S(=O)(=O)Nc2nccs2)cc1` (stereo not shown) [Example 149, N-[2-(4-fluorophenyl)-1-methylethyl]-4-[(1,3-thiazol-2-ylamino)sulfonyl]benzamide] are 12.5% and 14.6%.
Turning to `O=C(N[C@@H]1CCC[C@@H]1c1cc(F)cc(F)c1)c1ccc(S(=O)(=O)Nc2nccs2)cc1` [Example 128, N-[(1R,2R)-2-(3,5-difluorophenyl)cyclopentyl]-4-[(1,3-thiazol-2-ylamino)sulfonyl]benzamide], the inhibition at 3 µM amounted to 11.7% and the inhibition at 10 µM is -1.66%.
In the case of `O=C(c1ccc(S(=O)(=O)Nc2nccs2)cc1)N1CCCC1c1ccccc1` (stereo not shown) [Example 205, 4-[(2-Phenylpyrrolidin-1-yl)carbonyl]-N-1,3-thiazol-2-yl-benzenesulfonamide], the inhibition at 3 µM is 11.3% and the inhibition at 10 µM is 27.3%.
In the case of `O=C(c1ccc(S(=O)(=O)Nc2nccs2)cc1)N1CCCCC1Cc1ccccn1` (stereo not shown) [Example 244, 4-{[2-(Pyridin-2-ylmethyl)piperidin-1-yl]carbonyl}-N-1,3-thiazol-2-yl-benzenesulfonamide], the inhibition at 3 µM came to 14.2% and the inhibition at 10 µM was 21.9%.
The corresponding values for `N#Cc1cccc(OCC2CCCN(C(=O)c3ccc(S(=O)(=O)Nc4nccs4)cc3)C2)c1` (stereo not shown) [Example 278, 4-({3-[(3-Cyanophenoxy)methyl]piperidin-1-yl}carbonyl)-N-1,3-thiazol-2-yl-benzenesulfonamide] are 25.4% and 30%.
As to `C[C@H]([C@@H](O)c1ccccc1)N(C)C(=O)c1ccc(S(=O)(=O)Nc2nccs2)cc1` [Example 241, N-[(1R,2S)-2-hydroxy-1-methyl-2-phenylethyl]-N-methyl-4-[(1,3-thiazol-2-ylamino)sulfonyl]benzamide], the inhibition at 3 µM is 21.7% and the inhibition at 10 µM was 11.6%.
`CCC(NC(=O)c1ccc(S(=O)(=O)Nc2nccs2)cc1)c1ccc(F)cc1` (stereo not shown) [Example 142, N-[1-(4-fluorophenyl)propyl]-4-[(1,3-thiazol-2-ylamino)sulfonyl]benzamide]: the inhibition at 3 µM worked out at 30.4% and the inhibition at 10 µM was determined as 31.5%.
The corresponding values for `O=C(c1ccc(S(=O)(=O)Nc2nccs2)cc1)N(Cc1ccccc1)[C@@H]1CCCC[C@@H]1CO` [Example 226, N-benzyl-N-[(1R,2S)-2-(hydroxymethyl)cyclohexyl]-4-[(1,3-thiazol-2-ylamino)sulfonyl]benzamide] are -1.52% and 13.9%.
The corresponding values for `CC(C)(NC(=O)c1ccc(S(=O)(=O)Nc2nccs2)cc1)c1cccc(Cl)c1` [Example 127, N-[1-(3-chlorophenyl)-1-methylethyl]-4-[(1,3-thiazol-2-ylamino)sulfonyl]benzamide] are 28.9% and 28.7%.
Regarding `CC(NC(=O)c1ccc(S(=O)(=O)Nc2nccs2)cc1)c1ccc(F)cc1` (stereo not shown) [Example 103, N-[1-(4-fluorophenyl)ethyl]-4-[(1,3-thiazol-2-ylamino)sulfonyl]benzamide], the inhibition at 3 µM was determined as 21.2% and the inhibition at 10 µM was 46.8%.
The corresponding values for `O=C(c1ccc(S(=O)(=O)Nc2nccs2)cc1)N1CCOCC(O)(Cc2ccccc2)C1` (stereo not shown) [Example 258, 4-[(6-Benzyl-6-hydroxy-1,4-oxazepan-4-yl)carbonyl]-N-1,3-thiazol-2-yl-benzenesulfonamide] are 0.17% and 12%.
The corresponding values for `CN(CC(O)c1ccccc1)C(=O)c1ccc(S(=O)(=O)Nc2nccs2)cc1` (stereo not shown) [Example 250, N-(2-hydroxy-2-phenylethyl)-N-methyl-4-[(1,3-thiazol-2-yl-amino)sulfonyl]benzamide] are -4.32% and 0.12%.
The corresponding values for `O=C(c1ccc(S(=O)(=O)Nc2nccs2)cc1)N(Cc1ccc(F)cc1)C1CC1` [Example 230, N-cyclopropyl-N-(4-fluorobenzyl)-4-[(1,3-thiazol-2-yl-amino)sulfonyl]benzamide] are 16.7% and -0.51%.
As for `CCN(C(=O)c1ccc(S(=O)(=O)Nc2nccs2)cc1)[C@H](CO)c1ccccc1` [Example 219, N-ethyl-N-[(1S)-2-hydroxy-1-phenylethyl]-4-[(1,3-thiazol-2-yl-amino)sulfonyl]benzamide], the inhibition at 3 µM came out at 13.1% and the inhibition at 10 µM worked out at 1.08%.
The corresponding values for `COc1cccc(C2(NC(=O)c3ccc(S(=O)(=O)Nc4nccs4)cc3)CC2)c1` [Example 164, N-[1-(3-methoxyphenyl)cyclopropyl]-4-[(1,3-thiazol-2-ylamino)sulfonyl]benzamide] are 16.6% and 24.1%.
On to `O=C(c1ccc(S(=O)(=O)Nc2nccs2)cc1)N1CCCC(COc2cc(F)cc(F)c2)C1` (stereo not shown) [Example 271, 4-({3-[(3,5-Difluorophenoxy)methyl]piperidin-1-yl}carbonyl)-N-1,3-thiazol-2-yl-benzenesulfonamide], for which the inhibition at 3 µM worked out at 35.8% and the inhibition at 10 µM is 41.4%. In addition, the “SCN3A INHIB INACT DRC EP IWQ EMAX” value (Emax of dose-response curve, inactivated state) worked out at 52.4. In addition, under “read-out: SCN3A IWQ IC-50”, the IC50 stood at 26.4 µM.
Consider `O=C(c1ccc(S(=O)(=O)Nc2nccs2)cc1)N1CCCCCC1c1ccccn1` (stereo not shown) [Example 255, 4-[(2-Pyridin-2-ylazepan-1-yl)carbonyl]-N-1,3-thiazol-2-yl-benzenesulfonamide], for which the inhibition at 3 µM was 4.16% and the inhibition at 10 µM is 6.56%.
For the molecule `C[C@@H]([C@H](O)c1ccccc1)N(C)C(=O)c1ccc(S(=O)(=O)Nc2nccs2)cc1` [Example 188, N-[(1S,2R)-2-hydroxy-1-methyl-2-phenylethyl]-N-methyl-4-[(1,3-thiazol-2-ylamino)sulfonyl]benzamide], the inhibition at 3 µM was found to be 14.5% and the inhibition at 10 µM was determined as 1.03%.
The corresponding values for `O=C(NCc1cccc(Cl)c1)c1ccc(S(=O)(=O)Nc2nccs2)cc1` [Example 152, N-(3-chlorobenzyl)-4-[(1,3-thiazol-2-ylamino)sulfonyl]benzamide] are 42.2% and 56.3%.

Source of the values: US8741934B2, “Inhibitors of ion channels” (Pfizer Limited, priority 2007, dated 2014).
